# Reference: patent US9708314B2, “Heterocyclic amide compound” (NISSAN CHEMICAL INDUSTRIES, LTD., priority 2013, dated 2017)
# Legend:
# Assay type in all cases: in vivo
# [1] = system: transplanted Oryza sativa; assay: Test Example 1: effect on crop, application before weed generation in submerged conditions; settings: Application herbicide amount 320 g/ha; Seventeenth Table
# Summary of the method: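 Rating, on a six-step scale from almost no effect (0) to almost completely withered (5), was made three weeks after pre-emergence treatment. Treatment was surface application to flooded pots at g/ha rates, with plants kept at 25° C. to 30° C.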
# Abutilon theophrasti = assay: Test Example 4: herbicidal effect by application to foliage (diluvial soil, plastic box); settings: application to foliage, application herbicide amount 320 g/ha
# Summary of the method: (§1)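 Emulsion-formulated compound, diluted to a predetermined g/ha dose, applied by small sprayer to leaves and stems of 14-day-old seedlings grown in sterilized diluvial soil. Effect rated on 0–5 herbicidal-ratio scale three weeks on.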
# Alopecurus myosuroides = assay: as above; settings: application to foliage, application herbicide amount 320 g/ha
# Summary of the method: as §1
# Amaranthus retroflexus = assay: as above; settings: application to foliage, application herbicide amount 320 g/ha
# Summary of the method: as §1
# Apera spica-venti. = assay: as above; settings: application to foliage, application herbicide amount 320 g/ha
# Summary of the method: as §1
# Avena fatua = assay: as above; settings: application to foliage, application herbicide amount 320 g/ha
# Summary of the method: as §1
# Chenopodium album = assay: as above; settings: application to foliage, application herbicide amount 320 g/ha
# Summary of the method: as §1
# Digitaria ciliaris = assay: as above; settings: application to foliage, application herbicide amount 320 g/ha
# Summary of the method: as §1
# [2] = system: Echinochloa crus-galli var. crus-galli; assay: as above; settings: application to foliage, application herbicide amount 320 g/ha
# Summary of the method: as §1
# Galium spurium = assay: as above; settings: application to foliage, application herbicide amount 320 g/ha
# Summary of the method: as §1
# Lolium multiflorum Lam. = assay: as above; settings: application to foliage, application herbicide amount 320 g/ha
# Summary of the method: as §1
# Setaria viridis = assay: as above; settings: application to foliage, application herbicide amount 320 g/ha
# Summary of the method: as §1
# Stellaria media = assay: as above; settings: application to foliage, application herbicide amount 320 g/ha
# Summary of the method: as §1
# Veronica persica = assay: as above; settings: application to foliage, application herbicide amount 320 g/ha
# Summary of the method: as §1
# [3] = system: Beta vulgaris ssp. vulgaris; assay: Test Example 4: effect on crop by application to foliage (diluvial soil, plastic box); settings: application to foliage, application herbicide amount 320 g/ha
# Summary of the method: as §1
# Brassica campestris L. = assay: as above; settings: application to foliage, application herbicide amount 320 g/ha
# Summary of the method: as §1
# Glycine max = assay: as above; settings: application to foliage, application herbicide amount 320 g/ha
# Summary of the method: as §1
# Triticum aestivum = assay: as above; settings: application to foliage, application herbicide amount 320 g/ha
# Summary of the method: as §1
# Zea mays = assay: as above; settings: application to foliage, application herbicide amount 320 g/ha
# Summary of the method: as §1
# [4] = system: directly sowed Oryza sativa; assay: as above; settings: application to foliage, application herbicide amount 320 g/ha
# Summary of the method: as §1
SMILES,a: transplanted Oryza sativa (effect on crop grade) [1],M: herbicidal effect on Abutilon theophrasti (Abutilon theophrasti),J: herbicidal effect on Alopecurus myosuroides (Alopecurus myosuroides),N: herbicidal effect on Amaranthus retroflexus (Amaranthus retroflexus),L: herbicidal effect on Apera spica-venti. (Apera spica-venti.),I: herbicidal effect on Avena fatua (Avena fatua),O: herbicidal effect on Chenopodium album (Chenopodium album),F: herbicidal effect on Digitaria ciliaris (Digitaria ciliaris),H: herbicidal effect on Echinochloa crus-galli var. crus-galli [2],Q: herbicidal effect on Galium spurium (Galium spurium),K: herbicidal effect on Lolium multiflorum Lam. (Lolium multiflorum Lam.),G: herbicidal effect on Setaria viridis (Setaria viridis),P: herbicidal effect on Stellaria media (Stellaria media),R: herbicidal effect on Veronica persica (Veronica persica),"f: effect on crop, Beta vulgaris ssp. vulgaris [3]","g: effect on crop, Brassica campestris L. (Brassica campestris L.)","d: effect on crop, Glycine max (Glycine max)","e: effect on crop, Triticum aestivum (Triticum aestivum)","c: effect on crop, Zea mays (Zea mays)","b: effect on crop, directly sowed Oryza sativa [4]"
Cn1nnnc1NC(=O)c1ccc(C(F)(F)F)n2c(C3CCCC3)nnc12 [2-021],4 (Herbicidal ratio of 70% or more and less than 90%),5 (Herbicidal ratio of 90% or more (almost completely withered)),3 (Herbicidal ratio of 40% or more and less than 70%),5 (Herbicidal ratio of 90% or more (almost completely withered)),4 (Herbicidal ratio of 70% or more and less than 90%),3 (Herbicidal ratio of 40% or more and less than 70%),5 (Herbicidal ratio of 90% or more (almost completely withered)),5 (Herbicidal ratio of 90% or more (almost completely withered)),5 (Herbicidal ratio of 90% or more (almost completely withered)),4 (Herbicidal ratio of 70% or more and less than 90%),3 (Herbicidal ratio of 40% or more and less than 70%),5 (Herbicidal ratio of 90% or more (almost completely withered)),5 (Herbicidal ratio of 90% or more (almost completely withered)),5 (Herbicidal ratio of 90% or more (almost completely withered)),5 (Herbicidal ratio of 90% or more (almost completely withered)),4 (Herbicidal ratio of 70% or more and less than 90%),4 (Herbicidal ratio of 70% or more and less than 90%),3 (Herbicidal ratio of 40% or more and less than 70%),0 (Herbicidal ratio of 5% or less (almost no effect)),4 (Herbicidal ratio of 70% or more and less than 90%)
Cn1nnnc1NC(=O)c1ccc(C(F)(F)F)n2c(C3CCOC3)nnc12 (centres unmarked) [2-022],5 (Herbicidal ratio of 90% or more (almost completely withered)),5 (Herbicidal ratio of 90% or more (almost completely withered)),3 (Herbicidal ratio of 40% or more and less than 70%),5 (Herbicidal ratio of 90% or more (almost completely withered)),5 (Herbicidal ratio of 90% or more (almost completely withered)),4 (Herbicidal ratio of 70% or more and less than 90%),5 (Herbicidal ratio of 90% or more (almost completely withered)),4 (Herbicidal ratio of 70% or more and less than 90%),5 (Herbicidal ratio of 90% or more (almost completely withered)),4 (Herbicidal ratio of 70% or more and less than 90%),3 (Herbicidal ratio of 40% or more and less than 70%),5 (Herbicidal ratio of 90% or more (almost completely withered)),5 (Herbicidal ratio of 90% or more (almost completely withered)),5 (Herbicidal ratio of 90% or more (almost completely withered)),5 (Herbicidal ratio of 90% or more (almost completely withered)),5 (Herbicidal ratio of 90% or more (almost completely withered)),5 (Herbicidal ratio of 90% or more (almost completely withered)),3 (Herbicidal ratio of 40% or more and less than 70%),1 (Herbicidal ratio of 5% or more and less than 20%),5 (Herbicidal ratio of 90% or more (almost completely withered))
CCSc1nnc2c(C(=O)Nc3nnnn3C)ccc(C(F)(F)F)n12 [2-024],5 (Herbicidal ratio of 90% or more (almost completely withered)),5 (Herbicidal ratio of 90% or more (almost completely withered)),3 (Herbicidal ratio of 40% or more and less than 70%),5 (Herbicidal ratio of 90% or more (almost completely withered)),5 (Herbicidal ratio of 90% or more (almost completely withered)),4 (Herbicidal ratio of 70% or more and less than 90%),5 (Herbicidal ratio of 90% or more (almost completely withered)),5 (Herbicidal ratio of 90% or more (almost completely withered)),5 (Herbicidal ratio of 90% or more (almost completely withered)),4 (Herbicidal ratio of 70% or more and less than 90%),4 (Herbicidal ratio of 70% or more and less than 90%),5 (Herbicidal ratio of 90% or more (almost completely withered)),5 (Herbicidal ratio of 90% or more (almost completely withered)),5 (Herbicidal ratio of 90% or more (almost completely withered)),5 (Herbicidal ratio of 90% or more (almost completely withered)),5 (Herbicidal ratio of 90% or more (almost completely withered)),5 (Herbicidal ratio of 90% or more (almost completely withered)),4 (Herbicidal ratio of 70% or more and less than 90%),5 (Herbicidal ratio of 90% or more (almost completely withered)),5 (Herbicidal ratio of 90% or more (almost completely withered))
CC(C)Sc1nnc2c(C(=O)Nc3nnnn3C)ccc(C(F)(F)F)n12 [2-025],5 (Herbicidal ratio of 90% or more (almost completely withered)),5 (Herbicidal ratio of 90% or more (almost completely withered)),3 (Herbicidal ratio of 40% or more and less than 70%),5 (Herbicidal ratio of 90% or more (almost completely withered)),4 (Herbicidal ratio of 70% or more and less than 90%),4 (Herbicidal ratio of 70% or more and less than 90%),5 (Herbicidal ratio of 90% or more (almost completely withered)),5 (Herbicidal ratio of 90% or more (almost completely withered)),5 (Herbicidal ratio of 90% or more (almost completely withered)),4 (Herbicidal ratio of 70% or more and less than 90%),3 (Herbicidal ratio of 40% or more and less than 70%),5 (Herbicidal ratio of 90% or more (almost completely withered)),5 (Herbicidal ratio of 90% or more (almost completely withered)),5 (Herbicidal ratio of 90% or more (almost completely withered)),5 (Herbicidal ratio of 90% or more (almost completely withered)),4 (Herbicidal ratio of 70% or more and less than 90%),4 (Herbicidal ratio of 70% or more and less than 90%),3 (Herbicidal ratio of 40% or more and less than 70%),1 (Herbicidal ratio of 5% or more and less than 20%),5 (Herbicidal ratio of 90% or more (almost completely withered))
